Laboratory results reported in ChEMBL document CHEMBL1123821, “Synthesis of 5-chloro-5,8-dideaza analogues of folic acid and aminopterin targeted for colon adenocarcinoma” (J Med Chem, 1987).

How the values were obtained:
Assay type in all cases: functional, cell-based
HuTu80 = assay: Inhibition of cell growth against HuTu 80 human gastrointestinal adenocarcinoma cell lines in vitro
SW480 = assay: Inhibition of cell growth against SW480 human gastrointestinal adenocarcinoma cell lines in vitro
WiDr = assay: Inhibition of cell growth against WIDR human gastrointestinal adenocarcinoma cell lines in vitro
HT-29 = assay: Inhibition of cell growth against HT-29 human gastrointestinal adenocarcinoma cell lines in vitro

IC50 (SW480) [nM] | IC50 (HT-29) [nM] | SMILES | IC50 (HuTu80) [nM] | IC50 (WiDr) [nM]
 |  | CN(Cc1cnc2nc(N)nc(N)c2n1)c1ccc(C(=O)N[C@@H](CCC(=O)O)C(=O)O)cc1 [METHOTREXATE] | 9 | 
4500 | 1700 | Nc1nc(=O)c2cc(NCc3ccc(C(=O)NC(CCC(=O)O)C(=O)O)cc3)ccc2[nH]1 (stereo unspecified) | 4500 | 4200
 |  | Cc1c(NCc2ccc(C(=O)NC(CCC(=O)O)C(=O)O)cc2)ccc2nc(N)nc(O)c12 (stereo unspecified) | 4000 | 
56 | 60 | Cc1c(NCc2ccc(C(=O)NC(CCC(=O)O)C(=O)O)cc2)ccc2nc(N)nc(N)c12 (stereo unspecified) | 47 | 71
2 | 2.3 | Nc1nc(N)c2c(Cl)c(CNc3ccc(C(=O)NC(CCC(=O)O)C(=O)O)cc3)ccc2n1 (stereo unspecified) | 1.9 | 2.1
20 | 25 | Nc1nc(N)c2c(Cl)c(NCc3ccc(C(=O)NC(CCC(=O)O)C(=O)O)cc3)ccc2n1 (stereo unspecified) | 22 | 24
5 | 3 | Cc1c(CNc2ccc(C(=O)NC(CCC(=O)O)C(=O)O)cc2)ccc2nc(N)nc(N)c12 (stereo unspecified) | 3.4 | 5
38000 | 6700 | Nc1nc(O)c2c(Cl)c(NCc3ccc(C(=O)NC(CCC(=O)O)C(=O)O)cc3)ccc2n1 (stereo unspecified) | 8500 | 11000
